The text below walks through data of paper PMC4413193, “3-[4-(1H-Indol-3-yl)-1,3-thiazol-2-yl]-1H-pyrrolo[2,3-b]pyridines, Nortopsentin Analogues with Antiproliferative Activity” (Marine Drugs, 2015).

The subject of one series is MALME-3M. The series is described as follows: NCI-60 in vitro tumor cell growth inhibition, MALME-3M (melanoma). It counts as cell-based. The conditions noted are these: Homo sapiens, five concentration levels. The procedure:
(§1) All the synthesized thiazoles 3a–k were evaluated by the National Cancer Institute (Bethesda MD) for cytotoxicity against the NCI-60 cell line panel using standard protocols. Initially, the selected derivatives 3c,d,g,h,j,k were tested at a single dose (10^−5 M) on the full panel of approximately 60 human tumor cell lines derived from 9 human cancer cell types, that have been grouped in disease sub-panels including leukemia, non-small-cell lung, colon, central nervous system (CNS), melanoma, ovarian, renal, prostate and breast cancers (data not shown). Compounds 3d and 3k were further selected for full evaluation at five concentration levels (10^−4–10^−8 M).
(§2) The antitumor activity of compounds 3d and 3k was given by three parameters for each cell line: GI50 (the molar concentration of the compound that inhibits 50% net cell growth), TGI (the molar concentration of the compound leading to total inhibition of net cell growth), and LC50 (the molar concentration of the compound that induces 50% net cell death). The average values of mean graph midpoint (MG_MID) were calculated for each of these parameters.

A further series has as its system KM12. The series is described as follows: NCI-60 in vitro tumor cell growth inhibition, KM12 (colon cancer). It counts as cell-based. The conditions noted are these: Homo sapiens, five concentration levels. Here is the method:
as §1, §2

The subject of another series is 786-0. The series is described as follows: NCI-60 in vitro tumor cell growth inhibition, 786-0 (renal cancer). It counts as cell-based. Conditions: Homo sapiens, five concentration levels. Here is the method:
as §1, §2

Series [1] relates to HepG2 cells. The series is described as follows: Phosphatidylserine exposure, Annexin V-FITC/PI flow cytometry. It counts as cell-based, human. Conditions: HepG2, 24 h, at GI50 values. Here is the method: Apoptosis induction by 3d and 3k in HepG2 cells was investigated by externalization of plasma membrane phosphatidylserine and changes of mitochondrial transmembrane potential.
The apoptosis-induced PS externalization to the cell surface was measured by flow cytometry by double staining with Annexin V-Fluorescein isothiocyanate (Annexin V-FITC)/propidium iodide (PI). Annexin V binding to phosphatidylserine is used to identify the earliest stage of apoptosis. […] HepG2 cells were seeded in triplicate in 24-wells culture plates at a density of 2.0 × 10^5 cells/cm^2. After an overnight incubation, cells were washed with fresh medium and incubated with the compounds in RPMI. After 24 h, cells were harvested by trypsinization and adjusted at 2.0 × 10^5 cells/mL with combining buffer. One hundred μL of cell suspended solution was added to a new tube, and incubated with 5 µL annexin V and 10 μL of a 20 μg/mL PI solution at room temperature in the dark for 15 min. Then at least 1.0 × 10^4 cells were immediately subjected to FACS analysis using appropriate 2-bidimensional gating method.

The next series relates to MDA-MB-231/ATCC. The series is described as follows: NCI-60 in vitro tumor cell growth inhibition, MDA-MB-231/ATCC (breast cancer). It counts as cell-based. Conditions: Homo sapiens, five concentration levels. Here is the method: as §1, §2
The next series has as its system SK-MEL-5. The series is described as follows: NCI-60 in vitro tumor cell growth inhibition, SK-MEL-5 (melanoma). It counts as cell-based. The conditions noted are these: Homo sapiens, five concentration levels. Here is the method: as §1, §2
The test system of another series is U251. The series is described as follows: NCI-60 in vitro tumor cell growth inhibition, U251 (CNS cancer). Conditions: Homo sapiens, U-251, five concentration levels. It counts as cell-based. Here is the method: as §1, §2
In another series the test system is HOP-62. The series is described as follows: NCI-60 in vitro tumor cell growth inhibition, HOP-62 (non-small cell lung cancer). It counts as cell-based. Conditions: Homo sapiens, five concentration levels. The procedure: as §1, §2
The subject of a further series is HOP-92. The series is described as follows: NCI-60 in vitro tumor cell growth inhibition, HOP-92 (non-small cell lung cancer). It counts as cell-based. Conditions: Homo sapiens, five concentration levels. Here is the method:
as §1, §2

The subject of another series is UACC-62. The series is described as follows: NCI-60 in vitro tumor cell growth inhibition, UACC-62 (melanoma). It counts as cell-based. The conditions noted are these: Homo sapiens, five concentration levels. The procedure:
as §1, §2

In another series the test system is SNB-75. The series is described as follows: NCI-60 in vitro tumor cell growth inhibition, SNB-75 (CNS cancer). The conditions noted are these: Homo sapiens, five concentration levels. It counts as cell-based. Here is the method: as §1, §2
Series [2] deals with leukemia cancer subpanel cell lines. The series is described as follows: NCI-60 screen, leukemia subpanel summary. It counts as cell-based. The conditions noted are these: Homo sapiens; range over the leukemia subpanel; read-out: GI50 of all the leukemia subpanel cell lines (range). Here is the method: as §1, §2
For a further series, the system named is SK-OV-3. The series is described as follows: NCI-60 in vitro tumor cell growth inhibition, SK-OV-3 (ovarian cancer). It counts as cell-based. The conditions noted are these: Homo sapiens, five concentration levels. The procedure: as §1, §2
A further series relates to SN12C. The series is described as follows: NCI-60 in vitro tumor cell growth inhibition, SN12C (renal cancer). It counts as cell-based. The conditions noted are these: Homo sapiens, five concentration levels. The procedure:
as §1, §2

The subject of a further series is MOLT-4. The series is described as follows: NCI-60 in vitro tumor cell growth inhibition, MOLT-4 (leukemia). It counts as cell-based. The conditions noted are these: Homo sapiens, five concentration levels 10^−4–10^−8 M. The procedure:
as §1, §2

Series [3] concerns HepG2 cells. The series is described as follows: Cell cycle analysis by flow cytometry (PI staining). It counts as cell-based, human. Conditions: HepG2, 24 h treatment. The procedure: The distribution of HepG2 cells in the cell cycle phases after 24 h treatment with the two norptopsentin analogues, was assessed by flow cytometric analysis after staining of DNA with PI.
Cell cycle stage was analyzed by flow cytometry. Aliquots of 1 × 10^6 cells were harvested by centrifugation, washed with PBS and incubated in the dark in a PBS solution containing 20 μg/mL propidium iodide (PI) and 200 μg/mL RNase, for 30 min, at room temperature. Then samples were subjected to fluorescence-activated cell sorting (FACS) analysis by Epics XL™ flow cytometer using Expo32 software (Beckman Coulter, Fullerton, CA, USA). At least 1 × 10^4 cells were analyzed for each sample.
On the technique in general: In flow cytometry, cells or beads pass a laser one at a time.

The test system of another series is HL-60(TB). The series is described as follows: NCI-60 in vitro tumor cell growth inhibition, HL-60(TB) (leukemia). It counts as cell-based. The conditions noted are these: Homo sapiens, five concentration levels 10^−4–10^−8 M. Here is the method:
as §1, §2

For series [4], the system named is normal immortalized human liver cells (Chang). The series is described as follows: MTT viability assay, Chang liver cells. The conditions noted are these: identical conditions to HepG2 (72 h, 0.1–10 μM). It counts as cell-based. The procedure:
Cell growth inhibitory activity of compounds 3d and 3k was also investigated on human HepG2 hepatocarcinoma cells, a cell line not included in the NCI panel and of interest in the drug discovery because provided with a very active microsomal system for detoxification of xenobiotics. Monolayer cultures treated for 72 h with 0.1–10 μM concentrations of the compounds were examined by 3-(4,5-dimethylthiazol-2-yl)-2,5-diphenyltetrazolium bromide (MTT) assay for cell growth. […] Human cell lines of hepatoma HepG2 and Chang liver were purchased from American Type Culture Collection, Rockville, MD, USA. Cells were grown in RPMI supplemented with 2 mM L-glutamine, 10% FBS, 100 U/mL penicillin, 100 μg/mL streptomycin and 5 μg/mL gentamicin. HepG2 culture medium also contained 1.0 mM sodium pyruvate. Cells were maintained in log phase by seeding twice a week at a density of 3 × 10^8 cells/L in humidified 5% CO2 atmosphere, at 37 °C. In all experiments, cells were made quiescent through overnight incubation before the treatment with the compounds or vehicle alone (control cells). No differences were found between cells treated with DMSO 0.1% and untreated cells in terms of cell number and viability. […] Briefly, HepG2 and Chang cells were plated at 5 × 10^4 cells/well in 96-well plates containing 200 μL RPMI. […] The absorbance at 540 nm was measured in a microplate reader (Bio-RAD, Hercules, CA, USA). […]
For orientation: Tetrazolium assays rely on reduction of a dye to a coloured formazan, in cell work by metabolically active cells.

In the next series the test system is HCT-15. The series is described as follows: NCI-60 in vitro tumor cell growth inhibition, HCT-15 (colon cancer). It counts as cell-based. The conditions noted are these: Homo sapiens, five concentration levels. Here is the method:
as §1, §2

A further series relates to OVCAR-4. The series is described as follows: NCI-60 in vitro tumor cell growth inhibition, OVCAR-4 (ovarian cancer). It counts as cell-based. The conditions noted are these: Homo sapiens, five concentration levels. The procedure:
as §1, §2

Another series deals with ACHN. The series is described as follows: NCI-60 in vitro tumor cell growth inhibition, ACHN (renal cancer). It counts as cell-based. The conditions noted are these: Homo sapiens, five concentration levels. The procedure: as §1, §2

The term GI50 denotes the concentration giving 50% growth inhibition.

“Also recorded” adds a separate entry of the source.

`Cn1cc(-c2csc(-c3cn(C)c4ncccc34)n2)c2ccccc21` [Compound 3d, 1-Methyl-3-[4-(1-methyl-1H-indol-3-yl)-1,3-thiazol-2-yl]-1H-pyrrolo[2,3-b]pyridine]: the GI50 in the series with MALME-3M is 1040 nM; in the series with KM12 it was 210 nM; in the series on 786-0, 970 nM; in the series on MDA-MB-231/ATCC it was 2820 nM; in the series on SK-MEL-5, 240 nM; with U251 it was 410 nM. In addition, the GI50 was 810 nM in the series on HOP-62; 350 nM in the series with HOP-92; 300 nM with UACC-62; 160 nM in the series with SNB-75; 60 to 670 nM in series [2]; 570 nM in the series on SK-OV-3. Besides, the GI50 in the series with SN12C amounted to 12100 nM; in the series on MOLT-4, 670 nM; with HL-60(TB), 290 nM; with HCT-15, 170 nM; in the series on OVCAR-4, 7220 nM; in the series with ACHN, 720 nM. In addition, the “apoptosis induction, externalized phosphatidylserine” value in the series with HepG2 cells [1] is reported as “high percentage of cells in early apoptosis”. Also, the “distribution of HepG2 cells in the cell cycle phases” value in the series with HepG2 cells [3] was “significant dose-dependent decrease in the percentage of cells in the G0/G1 and S phases, accompanied by a concomitant percentage increase of cells in the G2/M phase, and appearance of a subG1-cell population”. In series [4], the “viability of normal immortalized human liver cells (Chang)” value is given as “did not affect normal immortalized human liver cells (Chang); also recorded: did not substantially impaired viability”.
`Cn1cc(-c2nc(-c3c[nH]c4ccccc34)cs2)c2cccnc21` [Compound 3k, 3-[4-(1H-Indol-3-yl)-1,3-thiazol-2-yl]-1-methyl-1H-pyrrolo[2,3-b]pyridine]: the GI50 was 740 nM with MALME-3M; 400 nM with KM12; 720 nM with 786-0; 1290 nM in the series on MDA-MB-231/ATCC; 270 nM with SK-MEL-5; 430 nM with U251. Moreover, the GI50 is 930 nM in the series with HOP-62; 310 nM with HOP-92; 420 nM with UACC-62; 140 nM with SNB-75; 120 to 660 nM in series [2]; 520 nM in the series with SK-OV-3. Also, the concentration for 50% growth inhibition (GI50) amounted to 5480 nM in the series with SN12C; 660 nM with MOLT-4; 320 nM with HL-60(TB); 290 nM in the series on HCT-15; 520 nM in the series on OVCAR-4; 510 nM in the series with ACHN. Also, the “apoptosis induction, externalized phosphatidylserine” value with HepG2 cells [1] is reported as “high percentage of cells in early apoptosis”. For the same compound, the “distribution of HepG2 cells in the cell cycle phases” value in the series with HepG2 cells [3] is “significant dose-dependent decrease in the percentage of cells in the G0/G1 and S phases, accompanied by a concomitant percentage increase of cells in the G2/M phase, and appearance of a subG1-cell population”. The “viability of normal immortalized human liver cells (Chang)” value in [4] is “did not affect normal immortalized human liver cells (Chang); also recorded: did not substantially impaired viability”.
